Laboratory results published in US20120040950A1, “ISOINDOLINONE INHIBITORS OF PHOSPHATIDYLINOSITOL 3-KINASE” (VERTEX PHARMACEUTICALS INCORPORATED, priority 2009, published 2012).
pKi: −log10 of the molar value.

Experiments:
PI3K-gamma = PI3K-gamma (Homo sapiens, UniProt P48736); experiment: PI3K Inhibition Assay; format: biochemical
Method: Using a Biomek FX from Beckman Coulter, 1.5 μL of each of ten 2.5-fold serial dilutions of a compound of the invention in 100% DMSO was added to an individual well (hereafter, “test well”) in a 96 well polystyrene plate [Corning, Costar Item No. 3697]. One test well also contained 1.5 μL of DMSO with no compound. […] Using a Titertek Multidrop, 50 μL of Reaction Mix [100 mM HEPES pH 7.5, 50 mM NaCl, 10 mM DTT, 0.2 mg/mL BSA, 60 μM phosphatidylinositol(4,5)bisphosphate diC16 (PI(4,5)P2; Avanti Polar Lipids, Cat. No. 840046P) and PI3K isoform of interest (see Table 3 for isoform concentrations)] was added to each well. To initiate the reaction, 50 μL of ATP Mix [20 mM MgCl2, 6 μM ATP (100 μCi/μmole ^33P-ATP)] was added each well, followed by incubating the wells for 30 min. at 25° C. Final concentrations in each well were 50 mM HEPES 7.5, 10 mM MgCl2, 25 mM NaCl, 5 mM DTT, 0.1 mg/mL BSA, 30 μM PI(4,5)P2, 3 μM ATP, and the PI3K isoform of interest (see Table 2). Final compound concentrations in each well ranged from 10 μM to 1 nM.
After incubation, the reactions in each well were quenched by addition of 50 μL of stop solution [30% TCA/Water, 10 mM ATP]. […] 50 μL of scintillation fluid was added to each well and the plate read on a Perkin-Elmer TopCount™ NXT liquid scintillation counter to obtain ^33P-counts representing inhibition values. […]

activated microglia = experiment: Microglia Activation Assay (LPS-injected mice, Iba1 IHC of brain); format: in vivo, Female C57B1/6J mice; conditions: 10 mg/kg b.i.d. orally by gavage, 4 doses, LPS 0.5 mg/kg i.p. for three days
Method: Female C57B1/6J mice (7 weeks old) were purchased from Jackson Laboratory (Maine, US). Animals were acclimated for a week at standard laboratory conditions (12 hrs light cycles) with free access to rodent chow and water. All procedures were in accordance with the National Institute of Health Guidelines for the care and Use of Laboratory Animals and were approved by IACUCC. The endotoxin Lipopolysaccharide (LPS) (E. coli 011:B4, cat#437627) was purchased from Calbiochem. LPS was dissolved in PBS buffer at a concentration of 0.05 mg/ml and stored in frozen aliquots. At the start of the study, mice received an intraperitoneal (i.p.) injection of LPS (0.5 mg/kg) for three consecutive days. Therapeutic treatment with VRT compounds was started together with the 2nd LPS administration and maintained throughout the study. Compound was dosed twice a day orally by gavage for a total of 4 doses. 24 h following the last LPS injection, and 2 hrs following the last VRT dose, animals were sacrificed by CO2 asphyxiation. […]
Digital images were captured using the Aperio ScanScope Slide Scanner (Aperio Technologies, Vista, Calif.). Images were captured at 20× optical magnification, and analyzed using the software Definiens Developer XD. […] Compound efficacy was calculated as percent decrease in number of activated microglia relative to vehicle control.

PI3K-gamma, sequence (P48736 whole entry, species assumed, canonical isoform): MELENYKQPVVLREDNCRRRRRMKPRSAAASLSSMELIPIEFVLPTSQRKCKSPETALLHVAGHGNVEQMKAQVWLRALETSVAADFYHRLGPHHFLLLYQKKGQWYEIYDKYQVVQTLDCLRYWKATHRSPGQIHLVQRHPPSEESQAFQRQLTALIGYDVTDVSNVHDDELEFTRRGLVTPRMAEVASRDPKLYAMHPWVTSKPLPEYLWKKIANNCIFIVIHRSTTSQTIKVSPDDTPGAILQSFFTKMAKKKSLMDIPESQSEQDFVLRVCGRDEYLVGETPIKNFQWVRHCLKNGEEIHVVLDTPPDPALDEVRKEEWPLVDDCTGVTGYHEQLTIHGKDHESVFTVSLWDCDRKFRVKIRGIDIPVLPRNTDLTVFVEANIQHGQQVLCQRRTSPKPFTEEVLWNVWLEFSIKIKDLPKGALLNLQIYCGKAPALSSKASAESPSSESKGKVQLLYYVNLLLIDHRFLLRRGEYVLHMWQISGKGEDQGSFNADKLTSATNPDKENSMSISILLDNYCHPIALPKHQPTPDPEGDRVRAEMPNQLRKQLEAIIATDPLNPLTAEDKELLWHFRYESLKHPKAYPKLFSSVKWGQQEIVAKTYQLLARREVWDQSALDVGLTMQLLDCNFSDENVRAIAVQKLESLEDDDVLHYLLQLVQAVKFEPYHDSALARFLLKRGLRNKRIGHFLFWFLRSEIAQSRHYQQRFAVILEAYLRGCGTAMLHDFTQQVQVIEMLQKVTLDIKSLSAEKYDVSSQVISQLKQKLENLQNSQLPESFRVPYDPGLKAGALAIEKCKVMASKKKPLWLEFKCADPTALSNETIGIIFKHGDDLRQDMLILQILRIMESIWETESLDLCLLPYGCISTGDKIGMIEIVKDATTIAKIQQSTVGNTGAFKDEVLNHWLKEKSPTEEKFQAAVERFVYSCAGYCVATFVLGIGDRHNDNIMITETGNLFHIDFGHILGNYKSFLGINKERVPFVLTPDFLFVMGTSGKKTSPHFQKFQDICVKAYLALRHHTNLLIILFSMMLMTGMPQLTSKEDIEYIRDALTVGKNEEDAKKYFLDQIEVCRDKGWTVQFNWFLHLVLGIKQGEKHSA

Structure (SMILES)	pKi (PI3K-gamma)	percent decrease in number of activated microglia relative to vehicle control (activated microglia) [%]
COc1cc(-c2nc3c(cc2C)C(=O)N(c2cn[nH]c2)C3)cnc1OC [Compound 238, 2-(5,6-dimethoxypyridin-3-yl)-3-methyl-6-(1H-pyrazol-4-yl)-6,7-dihydro-5H-pyrrolo[3,4-b]pyridin-5-one]	5.60 to 6.30	–
Cc1cc(-c2cncc(OC(F)F)c2)nc2c1C(=O)N(c1cnn(CC(F)(F)F)c1)C2 [Compound 271]	–	39
